The values below are quoted from earlier work in patent publication US8907090B2, “Processes for preparing different forms of (S)-(+)-Clopidogrel bisulfate” (Cadila Healthcare Limited, priority 2003, dated 2014).

Series [1] deals with platelet aggregation. The note with it: comparison of enantiomers.
The conditions of series [2]: comparison of enantiomers.

As to `COC(=O)C(c1ccccc1Cl)N1CCc2sccc2C1` (single isomer, unassigned) [levorotatory enantiomer], in series [1], the antiaggregant platelet activity entry is reported as “less active”. The tolerance result in series [2] is recorded as “less tolerated”. With `COC(=O)[C@H](c1ccccc1Cl)N1CCc2sccc2C1` (single isomer, unassigned) [dextrorotatory enantiomer], the antiaggregant platelet activity result in series [1] was “excellent antiaggregant platelet activity”.
